Assay: Uptake (sorption) of Alexidine by SureVue hydrogel contact lenses after overnight soak
Format: physicochemical
Source text: The following examples evaluate whether the addition of cyclodextrin reduced the sorption of the biguanide Alexidine on SureVue® brand hydrogel contact lenses (commercially available from Johnson & Johnson Vision Care Incorporated of Jacksonville, Fla.).
5. 3-mL of each test solution, as well as the control solution, were placed into the lens cases for a total of 5 samples per solution.
6. SureVue® lenses were placed into each lens well aseptically.
7. Each lens was “dipped” into double-distilled water for approximately 2 seconds prior to installation into the lens cases.
8. Lenses were allowed to soak for approximately 18 hours (overnight).
9. 1-mL of solution from each of the lens wells was removed, analyzed and returned to the lens cases.

Row | Compound | Uptake of Alexidine by SureVue ® Lenses (0.1% Beta-Cyclodextrin) (0.1% Beta-Cyclodextrin, soak approximately 18 hours) | Uptake of Alexidine by SureVue ® Lenses (0.3% Beta-Cyclodextrin) (0.3% Beta-Cyclodextrin, soak approximately 18 hours) | Uptake of Alexidine By SureVue ® Lenses (no Beta-Cyclodextrin (control solution), soak approximately 18 hours) | Inhibition of uptake of Alexidine by SureVue ® Lenses (0.1% Beta-Cyclodextrin) | Inhibition of uptake of Alexidine by SureVue ® Lenses (0.3% Beta-Cyclodextrin)
1 | CCCCC(CC)CNC(=N)NC(=N)NCCCCCCNC(=N)NC(=N)NCC(CC)CCCC (centres unmarked) [Alexidine] | 62.10 ppm | 31.04 ppm | 75.26 ppm | – | –
2 | OC[C@H]1O[C@@H]2O[C@H]3[C@H](O)[C@@H](O)[C@@H](O[C@H]4[C@H](O)[C@@H](O)[C@@H](O[C@H]5[C@H](O)[C@@H](O)[C@@H](O[C@H]6[C@H](O)[C@@H](O)[C@@H](O[C@H]7[C@H](O)[C@@H](O)[C@@H](O[C@H]8[C@H](O)[C@@H](O)[C@@H](O[C@H]1[C@H](O)[C@H]2O)O[C@@H]8CO)O[C@@H]7CO)O[C@@H]6CO)O[C@@H]5CO)O[C@@H]4CO)O[C@@H]3CO [Beta-Cyclodextrin] | – | – | – | 17.50% Inhibition | 58.75% Inbibition

— US6528464B1, “Composition and method for inhibiting uptake of biguanide antimicrobials by hydrogels” (Bausch & Lomb Incorporated, priority 2001, dated 2003)
